Assay results taken from patent US20240279184A1, “HETEROAROMATIC ANALOGUES OF 3-BENZYLMENADIONE DERIVATIVES AND PROCESSES FOR THEIR PREPARATION” (CENTRE NATIONAL DE LA RECHERCHE SCIENTIFIQUE, priority 2021, published 2024).

Key:
[1] = test system: Plasmodium falciparum NF54 strain; assay: primary screening of antimalarial activity, Plasmodium falciparum NF54 strain; assay type: cell-based; details: for antimalarial activity compared with the regioisomer (potency and specificity): NF54 strain versus rat L6 myoblasts, MR00418 vs MR00397, MR00419 vs MR00407; for IC50: Plasmodium falciparum NF54 strain, first primary screening
[2] = test system: rat L6 myoblast cell line; assay: primary screening on the rat L6 myoblast cell line (specificity/cytotoxicity); assay type: cell-based; details: first primary screening

`CC1=C(Cc2ccc(C(F)(F)F)nc2)C(=O)c2ccccc2C1=O` [MRO0418, 2-methyl-3-((6-(trifluoromethyl)pyridin-3-yl)methyl) naphthalene-1,4-dione] was tested, and the “antimalarial activity compared with the regioisomer (potency and specificity)” value [1] was “more potent and specific antimalarial activities than the regioisomers”, the IC50 [1] was 0.006 µM and the IC50 [2] was 179 µM.
`CC1=C(Cc2cnc(C(F)(F)F)nc2)C(=O)c2ccccc2C1=O` [MRO0419, 2-methyl-3-((2-(trifluoromethyl)pyrimidin-5-yl)methyl) naphthalene-1,4-dione] was tested, and the “antimalarial activity compared with the regioisomer (potency and specificity)” value [1] was “more potent and specific antimalarial activities than the regioisomers”, the IC50 [1] was 0.065 µM and the IC50 [2] was 48.3 µM.
